Format in all cases: functional
A short description of experiment [1]: Cytotoxicity against human BC1 cells after 72 hrs. The conditions noted are these: BC1, 72 h, read-out: ED50 (the source's name).
Another experiment has as its system P388. Briefly: Cytotoxicity against mouse P388 cells after 48 hrs. The conditions noted are these: P388, 48 h, read-out: ED50 (the source's name).
A further experiment has as its system HT-1080. Briefly: Cytotoxicity against human HT1080 cells after 48 hrs. To be noted: HT-1080, 48 h, read-out: ED50 (the source's name).
Another experiment has as its system SK-MEL-2. Briefly: Cytotoxicity against human SK-MEL-2 cells after 72 hrs. The conditions noted are these: SK-MEL-2, 72 h, read-out: ED50 (the source's name).
The subject of the next experiment is KB. Briefly: Cytotoxicity against human KB cells after 72 hrs. To be noted: read-out: ED50 (the source's name).
In another experiment the test system is Lu1. The experiment can be described thus: Cytotoxicity against human Lu1 cells. The conditions noted are these: read-out: ED50 (the source's name).
The next experiment deals with Col2. The experiment can be described thus: Cytotoxicity against human Col2 cells after 72 hrs. The conditions noted are these: Col2, 72 h, read-out: ED50 (the source's name).

The record followed here is ChEMBL document CHEMBL1147319, “Spectroscopic and biological investigation of nimbolide and 28-deoxonimbolide from Azadirachta indica” (1989).

In brackets after ≈: the same amount, converted by molar mass.

Turning to `COC(=O)C[C@H]1[C@]2(C)C3=C(C)[C@H](c4ccoc4)C[C@H]3O[C@@H]2[C@@H]2OC[C@]3(C)C=CC(=O)[C@@]1(C)[C@@H]23`, the EC50 was found to be 1.34 µg/mL (≈ 2.96 µM) in experiment [1]; 0.66 µg/mL (≈ 1.46 µM) in the experiment on P388; 1.04 µg/mL (≈ 2.3 µM) in the experiment on HT-1080; 2.05 µg/mL (≈ 4.53 µM) in the experiment with SK-MEL-2; 1.3 µg/mL (≈ 2.87 µM) with KB; 0.84 µg/mL (≈ 1.86 µM) in the experiment with Lu1. In addition, the EC50 in the experiment on Col2 stood at 1.81 µg/mL (≈ 4 µM).
For the molecule `COC(=O)C[C@H]1[C@]2(C)C3=C(C)[C@H](c4ccoc4)C[C@H]3O[C@@H]2[C@@H]2OC(=O)[C@]3(C)C=CC(=O)[C@@]1(C)[C@@H]23` [NIMBOLIDE], the EC50 in experiment [1] was 0.39 µg/mL (≈ 0.836 µM); with P388, 0.065 µg/mL (≈ 0.139 µM); in the experiment with HT-1080, 0.31 µg/mL (≈ 0.664 µM); in the experiment with SK-MEL-2 it was 0.53 µg/mL (≈ 1.14 µM); with KB, 0.25 µg/mL (≈ 0.536 µM); with Lu1, 0.42 µg/mL (≈ 0.9 µM). Besides, in the experiment with Col2, the EC50 is 0.41 µg/mL (≈ 0.879 µM).
